Results reported in ChEMBL document CHEMBL3243921, “2-Pyrrolidinylideneureas, a new class of central nervous system agents” (J Med Chem, 1978).
Activity calls are given as the source filed them.

tested on: Mus musculus; test: Muscle relaxant activity in po dosed mouse assessed as blockade of pentylenetetrazol-induced tonic extensor seizure; format: functional

Row | SMILES | Activity
1 | CN1CC(C)(C)C/C1=N\C(=O)Nc1ccccc1 | inactive
2 | Cc1ccccc1NC(=O)/N=C1\CCCN1C | Active
3 | CN1CCCC/C1=N\C(=O)Nc1ccccc1 | inactive
4 | O=C(/N=C1\CCCN1)Nc1ccccc1 | Active
5 | O=C(/N=C1\CCCCCN1)Nc1ccccc1 | inactive
6 | O=C(/N=C1\CCCN1Cc1ccccc1)Nc1c(Cl)cccc1Cl | inactive
7 | CN1CCC/C1=N\C(=S)Nc1ccccc1 | inactive
8 | CCOc1ccc(NC(=O)/N=C2\CCCN2C)cc1 | inactive
9 | CN1CCC/C1=N\C(=O)Nc1ccc(O)cc1 | inactive
10 | CN1CCCCC/C1=N\C(=O)Nc1ccccc1 | inactive
11 | Cc1ccc(Cl)c(C)c1NC(=O)/N=C1\CCCN1C | Active
12 | Cc1cccc(C)c1NC(=O)/N=C1\CC(C)(C)CN1C | inactive
13 | CC1/C(=N\C(=O)Nc2c(Cl)cccc2Cl)N(C)CC1c1ccccc1 (stereo unspecified) | inactive
14 | CN1CCCCC/C1=N\C(=O)Nc1c(Cl)cccc1Cl | inactive
15 | CN1CCC/C1=N\C(=O)Nc1ccc(Br)cc1 | inactive
16 | O=C(/N=C1\CCCCCN1)Nc1c(Cl)cccc1Cl | inactive
17 | CN1CCC/C1=N\C(=S)Nc1ccc([N+](=O)[O-])cc1 | inactive
18 | Cc1cccc(C)c1NC(=O)/N=C1\CC(c2ccccc2)CN1C (stereo unspecified) | inactive
19 | CN1CCC/C1=N\C(=O)Nc1ccc(OCc2ccccc2)cc1 | inactive
20 | CCOc1ccccc1NC(=O)/N=C1\CCCN1C | Active
21 | CN1CCC/C1=N\C(=O)Nc1ccc(N(C)C)cc1 | inactive
22 | CC(C)c1ccccc1NC(=O)/N=C1\CCCN1C | Active
23 | CN1CC(c2ccccc2)C/C1=N\C(=O)Nc1c(Cl)cccc1Cl (stereo unspecified) | inactive
24 | CN1CCC/C1=N\C(=O)Nc1c(Br)cc(Br)cc1Br | Active
25 | CN1CCC/C1=N\C(=O)Nc1ccc(C(C)(C)C)cc1 | inactive

tested on: Mus musculus; test: Hypnotic activity in po dosed mouse assessed as increase in pentylenetetrazol-induced persistent-convulsive threshold; format: functional, organism-based

Row | SMILES | Activity
26 | CN1CC(C)(C)C/C1=N\C(=O)Nc1ccccc1 | inactive
27 | Cc1ccccc1NC(=O)/N=C1\CCCN1C | Active
28 | CN1CCCC/C1=N\C(=O)Nc1ccccc1 | inactive
29 | O=C(/N=C1\CCCCCN1)Nc1ccccc1 | inactive
30 | O=C(/N=C1\CCCN1Cc1ccccc1)Nc1c(Cl)cccc1Cl | inactive
31 | CN1CCC/C1=N\C(=S)Nc1ccccc1 | inactive
32 | CN1CCCCC/C1=N\C(=O)Nc1ccccc1 | inactive
33 | Cc1cccc(C)c1NC(=O)/N=C1\CC(C)(C)CN1C | inactive
34 | CC1/C(=N\C(=O)Nc2c(Cl)cccc2Cl)N(C)CC1c1ccccc1 (stereo unspecified) | inactive
35 | CN1CCCCC/C1=N\C(=O)Nc1c(Cl)cccc1Cl | inactive
36 | O=C(/N=C1\CCCCCN1)Nc1c(Cl)cccc1Cl | inactive
37 | CN1CCC/C1=N\C(=S)Nc1ccc([N+](=O)[O-])cc1 | inactive
38 | Cc1cccc(C)c1NC(=O)/N=C1\CC(c2ccccc2)CN1C (stereo unspecified) | inactive
39 | CCOc1ccccc1NC(=O)/N=C1\CCCN1C | Active
40 | CC(C)c1ccccc1NC(=O)/N=C1\CCCN1C | Active
41 | CN1CC(c2ccccc2)C/C1=N\C(=O)Nc1c(Cl)cccc1Cl (stereo unspecified) | inactive

tested on: Mus musculus; test: Sedative-hypnotic activity in po dosed mouse assessed as increase in pentylenetetrazol-induced persistent-convulsive threshold; format: functional, organism-based

Row | SMILES | Activity
42 | CN1CC(C)(C)C/C1=N\C(=O)Nc1ccccc1 | inactive
43 | Cc1ccccc1NC(=O)/N=C1\CCCN1C | Active
44 | CN1CCCC/C1=N\C(=O)Nc1ccccc1 | inactive
45 | O=C(/N=C1\CCCCCN1)Nc1ccccc1 | inactive
46 | O=C(/N=C1\CCCN1Cc1ccccc1)Nc1c(Cl)cccc1Cl | inactive
47 | CN1CCC/C1=N\C(=S)Nc1ccccc1 | inactive
48 | CN1CCCCC/C1=N\C(=O)Nc1ccccc1 | inactive
49 | Cc1cccc(C)c1NC(=O)/N=C1\CC(C)(C)CN1C | inactive
50 | CC1/C(=N\C(=O)Nc2c(Cl)cccc2Cl)N(C)CC1c1ccccc1 (stereo unspecified) | inactive
51 | CN1CCCCC/C1=N\C(=O)Nc1c(Cl)cccc1Cl | inactive
52 | O=C(/N=C1\CCCCCN1)Nc1c(Cl)cccc1Cl | inactive
53 | CN1CCC/C1=N\C(=S)Nc1ccc([N+](=O)[O-])cc1 | inactive
54 | Cc1cccc(C)c1NC(=O)/N=C1\CC(c2ccccc2)CN1C (stereo unspecified) | inactive
55 | CCOc1ccccc1NC(=O)/N=C1\CCCN1C | Active
56 | CC(C)c1ccccc1NC(=O)/N=C1\CCCN1C | Active
57 | CN1CC(c2ccccc2)C/C1=N\C(=O)Nc1c(Cl)cccc1Cl (stereo unspecified) | inactive

tested on: Rattus norvegicus; test: Antianxiety activity in ip dosed rat assessed as effect on increase in punished responses administered qd for 5 days measured every day for 5 days; format: functional

Row | SMILES | Activity
58 | CN1CC(C)(C)C/C1=N\C(=O)Nc1ccccc1 | inactive
59 | Cc1ccccc1NC(=O)/N=C1\CCCN1C | Active
60 | CN1CCCC/C1=N\C(=O)Nc1ccccc1 | inactive
61 | O=C(/N=C1\CCCCCN1)Nc1ccccc1 | inactive
62 | O=C(/N=C1\CCCN1Cc1ccccc1)Nc1c(Cl)cccc1Cl | inactive
63 | CN1CCC/C1=N\C(=S)Nc1ccccc1 | inactive
64 | CCOc1ccc(NC(=O)/N=C2\CCCN2C)cc1 | inactive
65 | CN1CCC/C1=N\C(=O)Nc1ccc(O)cc1 | inactive
66 | CN1CCCCC/C1=N\C(=O)Nc1ccccc1 | inactive
67 | Cc1cccc(C)c1NC(=O)/N=C1\CC(C)(C)CN1C | inactive
68 | CC1/C(=N\C(=O)Nc2c(Cl)cccc2Cl)N(C)CC1c1ccccc1 (stereo unspecified) | inactive
69 | CN1CCCCC/C1=N\C(=O)Nc1c(Cl)cccc1Cl | inactive
70 | CN1CCC/C1=N\C(=O)Nc1ccc(Br)cc1 | inactive
71 | O=C(/N=C1\CCCCCN1)Nc1c(Cl)cccc1Cl | inactive
72 | CN1CCC/C1=N\C(=S)Nc1ccc([N+](=O)[O-])cc1 | inactive
73 | Cc1cccc(C)c1NC(=O)/N=C1\CC(c2ccccc2)CN1C (stereo unspecified) | inactive
74 | CN1CCC/C1=N\C(=O)Nc1ccc(OCc2ccccc2)cc1 | inactive
75 | CCOc1ccccc1NC(=O)/N=C1\CCCN1C | Active
76 | CN1CCC/C1=N\C(=O)Nc1ccc(N(C)C)cc1 | inactive
77 | CC(C)c1ccccc1NC(=O)/N=C1\CCCN1C | Active
78 | CN1CC(c2ccccc2)C/C1=N\C(=O)Nc1c(Cl)cccc1Cl (stereo unspecified) | inactive
79 | CN1CCC/C1=N\C(=O)Nc1ccc(C(C)(C)C)cc1 | inactive

tested on: Mus musculus; test: Muscle relaxant activity in po dosed mouse assessed as increase in strychnine-induced persistant convulsive threshold; format: functional

Row | SMILES | Activity
80 | CN1CC(C)(C)C/C1=N\C(=O)Nc1ccccc1 | inactive
81 | Cc1ccccc1NC(=O)/N=C1\CCCN1C | Active
82 | CN1CCCC/C1=N\C(=O)Nc1ccccc1 | inactive
83 | O=C(/N=C1\CCCN1)Nc1ccccc1 | Active
84 | O=C(/N=C1\CCCCCN1)Nc1ccccc1 | inactive
85 | O=C(/N=C1\CCCN1Cc1ccccc1)Nc1c(Cl)cccc1Cl | inactive
86 | CN1CCC/C1=N\C(=S)Nc1ccccc1 | inactive
87 | CCOc1ccc(NC(=O)/N=C2\CCCN2C)cc1 | inactive
88 | CN1CCC/C1=N\C(=O)Nc1ccc(O)cc1 | inactive
89 | CN1CCCCC/C1=N\C(=O)Nc1ccccc1 | inactive
90 | Cc1ccc(Cl)c(C)c1NC(=O)/N=C1\CCCN1C | Active
91 | Cc1cccc(C)c1NC(=O)/N=C1\CC(C)(C)CN1C | inactive
92 | CC1/C(=N\C(=O)Nc2c(Cl)cccc2Cl)N(C)CC1c1ccccc1 (stereo unspecified) | inactive
93 | CN1CCCCC/C1=N\C(=O)Nc1c(Cl)cccc1Cl | inactive
94 | CN1CCC/C1=N\C(=O)Nc1ccc(Br)cc1 | inactive
95 | O=C(/N=C1\CCCCCN1)Nc1c(Cl)cccc1Cl | inactive
96 | CN1CCC/C1=N\C(=S)Nc1ccc([N+](=O)[O-])cc1 | inactive
97 | Cc1cccc(C)c1NC(=O)/N=C1\CC(c2ccccc2)CN1C (stereo unspecified) | inactive
98 | CN1CCC/C1=N\C(=O)Nc1ccc(OCc2ccccc2)cc1 | inactive
99 | CCOc1ccccc1NC(=O)/N=C1\CCCN1C | Active
100 | CN1CCC/C1=N\C(=O)Nc1ccc(N(C)C)cc1 | inactive
101 | CC(C)c1ccccc1NC(=O)/N=C1\CCCN1C | Active
102 | CN1CC(c2ccccc2)C/C1=N\C(=O)Nc1c(Cl)cccc1Cl (stereo unspecified) | inactive
103 | CN1CCC/C1=N\C(=O)Nc1c(Br)cc(Br)cc1Br | Active
104 | CN1CCC/C1=N\C(=O)Nc1ccc(C(C)(C)C)cc1 | inactive

tested on: Mus musculus; test: Anticonvulsant activity in po dosed mouse assessed as blockade of supramaximal electroshock-induced […] seizure; format: functional

Row | SMILES | Activity
105 | CN1CC(C)(C)C/C1=N\C(=O)Nc1ccccc1 | inactive
106 | Cc1ccccc1NC(=O)/N=C1\CCCN1C | Active
107 | CN1CCCC/C1=N\C(=O)Nc1ccccc1 | inactive
108 | O=C(/N=C1\CCCCCN1)Nc1ccccc1 | inactive
109 | O=C(/N=C1\CCCN1Cc1ccccc1)Nc1c(Cl)cccc1Cl | inactive
110 | CN1CCC/C1=N\C(=S)Nc1ccccc1 | inactive
111 | CCOc1ccc(NC(=O)/N=C2\CCCN2C)cc1 | inactive
112 | CN1CCC/C1=N\C(=O)Nc1ccc(O)cc1 | inactive
113 | CN1CCCCC/C1=N\C(=O)Nc1ccccc1 | inactive
114 | Cc1cccc(C)c1NC(=O)/N=C1\CC(C)(C)CN1C | inactive
115 | CC1/C(=N\C(=O)Nc2c(Cl)cccc2Cl)N(C)CC1c1ccccc1 (stereo unspecified) | inactive
116 | CN1CCCCC/C1=N\C(=O)Nc1c(Cl)cccc1Cl | inactive
117 | CN1CCC/C1=N\C(=O)Nc1ccc(Br)cc1 | inactive
118 | O=C(/N=C1\CCCCCN1)Nc1c(Cl)cccc1Cl | inactive
119 | CN1CCC/C1=N\C(=S)Nc1ccc([N+](=O)[O-])cc1 | inactive
120 | Cc1cccc(C)c1NC(=O)/N=C1\CC(c2ccccc2)CN1C (stereo unspecified) | inactive
121 | CN1CCC/C1=N\C(=O)Nc1ccc(OCc2ccccc2)cc1 | inactive
122 | CCOc1ccccc1NC(=O)/N=C1\CCCN1C | Active
123 | CN1CCC/C1=N\C(=O)Nc1ccc(N(C)C)cc1 | inactive
124 | CC(C)c1ccccc1NC(=O)/N=C1\CCCN1C | Active
125 | CN1CC(c2ccccc2)C/C1=N\C(=O)Nc1c(Cl)cccc1Cl (stereo unspecified) | inactive
126 | CN1CCC/C1=N\C(=O)Nc1ccc(C(C)(C)C)cc1 | inactive
